Read-outs that look alike come from different tables or passages of the source. Residues, ends and D or L forms follow the SMILES beside them. *: point of attachment. Cbz = O=C(OCc1ccccc1)*
Tests used:
H460 cells [1] = details: cited from earlier work
H460 cells [2] = experiment: MTT cell viability assay (cytotoxicity); format: cell-based, human; details: read-out: IC50 ± SD H460
Protocol: (§1) NSCLCs H292 and H460 were treated with various concentrations of derivatives of the RT right-half analog for 24 h. […] However, the IC50 values for DH_17, DH_20, DH_23, and DH_26 in H460 cells were greater than 100 μM. TM-(−)-18 was identified as a potent compound in a previous study. The structure of TM-(−)-18 was present in Figure 1A. […] To assess the selectivity of DH_28, DH_30, DH_31, and TM-(−)-18 in lung cancer cells, non-tumorigenic epithelial cell lines derived from human bronchial epithelial cells (BEAS-2B) were treated with DH_28, DH_30, DH_31, and TM-(−)-18 at various concentrations for 24 h.
(§2) MTT assay was conducted to ascertain cell viability in the presence of DH_17, DH_20, DH_23, DH_26, DH_28, DH_30, DH_31, or TM-(–)-18. H292 and H460 cells (1.0 × 10^4 cells per well) were seeded in 96-well plates. Following overnight incubation, the cells were treated with different concentrations of RT right–half analogs (0–100 μM) for 24 h at 37 °C. Subsequently, cell viability was assessed using MTT assay, following the manufacturers’ protocols. The optical density was measured at 570 nm using a CLARIOStar microplate reader (BMG Labtech, Ortenberg, Germany).

H292 cells [3] = experiment: MTT cell viability assay (cytotoxicity); format: cell-based, human; details: read-out: IC50 ± SD H292
Protocol: as §1, §2

H460 cells [4] = format: cell-based; details: H460, 10 µM, 24 h
Protocol: (§3) Apoptosis is a crucial mechanism of cell death induced by anticancer drugs. We further analyzed the apoptosis induction effect of the potent small molecules, namely DH_28, DH_30, and DH_31. Nuclear morphology detected by the staining with nucleus-specific fluorescence dye Hoechst 33342 and cell-impermeable PI for necrotic detection was performed. Morphologic changes by means of condensed and/or fragmented nuclei were observed after 24 h of treatment (Figure 2D). […] Therefore, DH_31 was selected for further experiments.
(§4) Figure 2 The effect of RT right-half analogs on cytotoxicity in NSCLC and human normal lung epithelial (BEAS-2B) cell lines and apoptotic cell death in NSCLC cells. (A) NSCLC H292 and H460 cells were treated with derivatives of RT right-half analogs for 24 h and analyzed using MTT assay to assess cytotoxicity. (B) IC50 values for H292 and H460 cell lines were calculated. (C) BEAS-2B cells were treated with DH_28, DH_30, DH_31, and TM-(−)-18 for 24 h. The cytotoxic effects were evaluated using an MTT assay, and the IC50 values for BEAS-2B cells were determined. (D) H292 and H460 cells were seeded and treated with 0–10 μM of DH_28, DH_30, and DH_31 for 24 h. Hoechst 33342 and PI were used to stain the cell nuclei. Images were obtained under a fluorescence microscope. (E) The percentages of cell death were calculated based on the stained images in H292 and H460 cells. Data represent the mean ± SD (n = 3). *, **, and *** indicate a statistically significant difference between the treated and the untreated cells at p < 0.05, p < 0.01, and p < 0.001, respectively. TEXT PRINTED IN THE PICTURE: (B) DH_17: IC50 ± SD (μM) H292: 20.50 ± 3.69; IC50 ± SD (μM) H460: > 100 | (B) DH_20: IC50 ± SD (μM) H292: 21.46 ± 3.77; IC50 ± SD (μM) H460: > 100 | (B) DH_23: IC50 ± SD (μM) H292: 17.50 ± 3.08; IC50 ± SD (μM) H460: > 100 | (B) DH_26: IC50 ± SD (μM) H292: 7.18 ± 2.39; IC50 ± SD (μM) H460: > 100 | (B) DH_28: IC50 ± SD (μM) H292: 9.56 ± 1.87; IC50 ± SD (μM) H460: 11.48 ± 1.87 | (B) DH_30: IC50 ± SD (μM) H292: 7.80 ± 2.30; IC50 ± SD (μM) H460: 4.51 ± 0.78 | (B) DH_31: IC50 ± SD (μM) H292: 5.54 ± 1.04; IC50 ± SD (μM) H460: 2.90 ± 0.58 | (B) TM-(–)-18: IC50 ± SD (μM) H292: > 100; IC50 ± SD (μM) H460: 7.89 ± 1.27 | (C) DH_28: BEAS-2B IC50 ± SD (μM): 16.46 ± 2.11 | (C) DH_30: BEAS-2B IC50 ± SD (μM): 5.50 ± 1.70 | (C) DH_31: BEAS-2B IC50 ± SD (μM): 6.51 ± 1.40 | (C) TM-(–)-18: BEAS-2B IC50 ± SD (μM): 7.25 ± 1.25 DOUBTS OF THE COPYIST ABOUT THIS PICTURE: Panel C, DH_28, IC50: small print, 16.46 ± 2.11 is the best reading; 6 could be 8 / Panel C, DH_30, IC50: small print, 5.50 ± 1.70 is the best reading; 5 could be 6 / Panel C, DH_31, IC50: small print, 6.51 ± 1.40 is the best reading; 6 could be 8 or 5 / Panel C, TM-(–)-18, IC50: small print, 7.25 ± 1.25 is the best reading

H292 cells [5] = format: cell-based; details: H292, 10 µM; for apoptosis: 24 h; for necrosis: 24 h (p < 0.001)
Protocol: as §3, §4

BEAS-2B cells = experiment: MTT assay in non-tumorigenic bronchial epithelial cells (selectivity); format: cell-based; details: Homo sapiens, 24 h, read-out: BEAS-2B IC50 ± SD
Protocol: as §1
as §4, with “Data represent the mean ± SD (n = 3). *, **, and *** indicate a statistically significant difference between the treated and the untreated cells at p < 0.05, p < 0.01, and p < 0.001, respectively.” left out

STAT3 = biological target: T1, STAT3 (Homo sapiens, UniProt P40763); experiment: STAT3 proteasomal degradation, Western blot with or without MG132; format: cell-based
T1 construct: endogenous in cells; host or cells: NCI-H460 (ATCC HTB-177)
T1 sequence (P40763 whole entry): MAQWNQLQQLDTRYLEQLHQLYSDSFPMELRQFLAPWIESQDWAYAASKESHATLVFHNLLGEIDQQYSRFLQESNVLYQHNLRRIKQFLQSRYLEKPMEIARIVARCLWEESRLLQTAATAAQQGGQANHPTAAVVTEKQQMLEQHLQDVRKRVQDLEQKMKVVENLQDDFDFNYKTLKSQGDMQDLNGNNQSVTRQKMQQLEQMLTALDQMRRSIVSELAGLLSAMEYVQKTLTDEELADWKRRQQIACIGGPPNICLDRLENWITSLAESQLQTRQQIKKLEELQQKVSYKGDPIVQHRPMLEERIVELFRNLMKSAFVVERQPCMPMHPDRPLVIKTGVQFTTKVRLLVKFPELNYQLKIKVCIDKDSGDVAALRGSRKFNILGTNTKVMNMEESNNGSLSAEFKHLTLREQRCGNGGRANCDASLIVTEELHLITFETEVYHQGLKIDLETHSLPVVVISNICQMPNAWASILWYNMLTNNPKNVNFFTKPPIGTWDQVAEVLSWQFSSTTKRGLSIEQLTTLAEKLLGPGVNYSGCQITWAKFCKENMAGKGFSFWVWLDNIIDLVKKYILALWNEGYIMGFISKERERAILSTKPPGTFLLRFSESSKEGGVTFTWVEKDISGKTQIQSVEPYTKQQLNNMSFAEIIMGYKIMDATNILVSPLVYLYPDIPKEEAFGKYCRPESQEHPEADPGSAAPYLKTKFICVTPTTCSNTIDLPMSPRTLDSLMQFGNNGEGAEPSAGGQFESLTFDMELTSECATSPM
Protocol: To explore whether the reduction in total STAT3 protein after DH_31 treatments (as shown in Figure 5B–E) occurs at the mRNA or protein levels, we first investigated mRNA levels using Real-time qPCR. […] To evaluate whether DH_31 affects STAT3 stability, pretreatment with MG132, a potent selective proteasome inhibitor, was performed. H460 cells were pretreated with or without MG132 (10 μM) for 1 h and then cells were either treated with DH_31 for 6 h or left untreated. […] The proteasome can recognize and degrade protein targets that are conjugated by single or poly-ubiquitin molecules. To investigate the ubiquitination level of STAT3 with DH_31 treatments, the ubiquitination level was evaluated using immunoprecipitation and Western blot analysis of the STAT3–ubiquitin complex in the lung cancer cells treated with DH_31 and in untreated cells.
Immunoprecipitation assay was performed to investigate ubiquitin–proteasomal degradation, shedding light on the regulatory mechanisms involved. H460 cells (4.0 × 10^5 cells per well) were seeded in 6-well plates. Following overnight incubation, the cells were pretreated with 10 μM of a proteasome inhibitor, MG132, for 1 h to prevent proteasomal degradation, and then were treated with different concentrations of DH_31 (0–2.5 μM) for 6 h. After treatment, the cells were lysed as described above. Immunoprecipitation was carried out using the Dynabeads™ Protein G Immunoprecipitation kit, following the manufacturers’ protocols. The magnetic beads were coated with the rabbit anti-STAT3, then incubated with whole-cell lysate and mixed gently overnight at 4 °C. After washing, the supernatant containing the antibody–antigen complex was used to perform Western blot analysis to detect the ubiquitinated STAT3 protein.

B16F10 cells = system: B16F10 cells; parameters: method as in PMID 36014573; details: B16F10 cells induced by the RAW264.7 supernatant; cited from earlier work
[6] = parameters: method as in PMID 32260280; details: concentration-dependent manner; cited from earlier work

22-O-(N-Boc-L-glycine) ester of RM
H460 cell motility (H460 cells [1]): inhibited

COc1c(C)cc2c(c1O)[C@@H]1CN(Cc3ccccn3)[C@@H](C#N)[C@H](C2)N1C [DH_17, (1R,4R,5S)-10-hydroxy-9-methoxy-8,11-dimethyl-3-(pyridin-2-ylmethyl)-1,2,3,4,5,6-hexahydro-1,5-epiminobenzo[d]azocine-4-carbonitrile]
IC50 (H460 cells [2]; Homo sapiens, NCI-H460, 24 h): > 100 µM | IC50 (H292 cells [3]; Homo sapiens, NCI-H292, 24 h): 20.5 ± 3.69 µM

COc1c(C)cc2c(c1O)[C@@H]1CN(Cc3cccnc3)[C@@H](C#N)[C@H](C2)N1C [DH_20, (1R,4R,5S)-10-hydroxy-9-methoxy-8,11-dimethyl-3-(pyridin-3-ylmethyl)-1,2,3,4,5,6-hexahydro-1,5-epiminobenzo[d]azocine-4-carbonitrile]
IC50 (H460 cells [2]; Homo sapiens, NCI-H460, 24 h): > 100 µM | IC50 (H292 cells [3]; Homo sapiens, NCI-H292, 24 h): 21.5 ± 3.77 µM

COc1c(C)cc2c(c1O)[C@@H]1CN(Cc3ccncc3)[C@@H](C#N)[C@H](C2)N1C [DH_23, (1R,4R,5S)-10-hydroxy-9-methoxy-8,11-dimethyl-3-(pyridin-4-ylmethyl)-1,2,3,4,5,6-hexahydro-1,5-epiminobenzo[d]azocine-4-carbonitrile]
IC50 (H460 cells [2]; Homo sapiens, NCI-H460, 24 h): > 100 µM | IC50 (H292 cells [3]; Homo sapiens, NCI-H292, 24 h): 17.5 ± 3.08 µM

COc1c(C)cc2c(c1O)[C@@H]1CN(Cc3cncs3)[C@@H](C#N)[C@H](C2)N1C [DH_26, (1R,4R,5S)-10-hydroxy-9-methoxy-8,11-dimethyl-3-(thiazol-5-ylmethyl)-1,2,3,4,5,6-hexahydro-1,5-epiminobenzo[d]azocine-4-carbonitrile]
IC50 (H460 cells [2]; Homo sapiens, NCI-H460, 24 h): > 100 µM | IC50 (H292 cells [3]; Homo sapiens, NCI-H292, 24 h): 7.18 ± 2.39 µM

COc1c(C)cc2c(c1O)[C@@H]1CN(Cc3cccc4ccccc34)[C@@H](C#N)[C@H](C2)N1C [DH_28, (1R,4R,5S)-10-hydroxy-9-methoxy-8,11-dimethyl-3-(naphthalen-1-ylmethyl)-1,2,3,4,5,6-hexahydro-1,5-epiminobenzo[d]azocine-4-carbonitrile]
apoptotic cell death (H460 cells [4]): significant apoptotic cell death | necrosis (H460 cells [4]): significant necrosis | apoptosis (H292 cells [5]): significant apoptosis | necrosis (H292 cells [5]): Necrosis was detected | IC50 (H460 cells [2]; 24 h): < 15 µM | IC50 (H460 cells [2]; Homo sapiens, NCI-H460, 24 h): 11.5 ± 1.87 µM | IC50 (H292 cells [3]; 24 h): < 15 µM | IC50 (H292 cells [3]; Homo sapiens, NCI-H292, 24 h): 9.56 ± 1.87 µM | IC50 (BEAS-2B cells): 16.5 ± 2.11 µM

COc1c(C)cc2c(c1OCc1ccccc1)[C@@H]1CN(Cc3ccc4ccccc4c3)[C@@H](C#N)[C@H](C2)N1C [DH_30, (1R,4R,5S)-10-(benzyloxy)-9-methoxy-8,11-dimethyl-3-(naphthalen-2-ylmethyl)-1,2,3,4,5,6-hexahydro-1,5-epiminobenzo[d]azocine-4-carbonitrile]
apoptotic cell death (H460 cells [4]): significant apoptotic cell death | necrosis (H460 cells [4]): significant necrosis | apoptosis (H292 cells [5]): significant apoptosis | necrosis (H292 cells [5]): Necrosis was detected | IC50 (H292 cells [3]; 24 h): < 15 µM | IC50 (H292 cells [3]; Homo sapiens, NCI-H292, 24 h): 7.8 ± 2.3 µM | IC50 (BEAS-2B cells): 5.5 ± 1.7 µM

CC(C)C[C@@H](C=O)NC(=O)[C@H](CC(C)C)NC(=O)[C@H](CC(C)C)NC(=O)OCc1ccccc1 [MG132] (Cbz-Leu-Leu-Leu-aldehyde)
effect on DH_31-induced STAT3 downregulation (STAT3; H460, MG132 10 μM 1 h pretreatment, then DH_31 0, 1, 2.5 µM 6 h): significantly reversed | STAT3 level (STAT3; H460, MG132 10 μM pretreatment, all DH_31 concentrations): drastically increased

CC=C(C)C(=O)OCC1c2c(c(O)c(C)c3c2OCO3)CC2C3C4=C(CC(C(C#N)N12)N3C)C(=O)C(C)=C(OC)C4=O (stereo not shown) [RT, Renieramycin T]
STAT3 expression (B16F10 cells): reduced | Twist, Snail, Vimentin, and N-cadherin expression (B16F10 cells): reduced | migration ability (B16F10 cells): reduced

COc1c(C)cc2c(c1O)C1CN(Cc3ccccc3)C(C#N)C(C2)N1C (stereo not drawn) [TM-(−)-18, reference compound]
IC50 (H460 cells [2]; Homo sapiens, NCI-H460, 24 h): 7.89 ± 1.27 µM | IC50 (H292 cells [3]; Homo sapiens, NCI-H292, 24 h): > 100 µM | IC50 (BEAS-2B cells): 7.25 ± 1.25 µM | apoptosis [6]: increased
